These results are taken from US20230134843A1, “TREATMENT OF STEM CELL DEFICIENCY” (OSPEDALE SAN RAFFAELE S.R.L., priority 2020, published 2023).

What all share (assay type): in vivo, mice
Assay [1] deals with CD3+ cells. The assay is described as follows: CD3+ cell (T cell) infiltration by immunohistochemistry, acute GVHD mouse model. As to conditions: Fosaprepitant 10 mg/mL topically six times a day; day 29; p<0.001. Here is the method:
(§1) 10-week-old male BALB/C and C57BL/6N mice (Charles River Laboratory, Lecco, Italy) were used for all the experiments (n=5/each group). All mice were free from ocular surface disease at baseline. The housing conditions were controlled (temperature 22° C., light from 07:00-19:00, humidity 50%-60%), and fresh food and water were freely available. The animals were monitored 3 times per week for 28 days post-transplantation for in vivo slit-lamp microscopy imaging, ocular surface score and systemic GVHD score (FIG. 11A). Carbon dioxide inhalation and subsequent cervical dislocation were applied to euthanize the animals. All the experiments were approved by the Animal Care and Use Committee of the IRCCS San Raffaele Scientific Institute, in accordance with the ARVO Statement for the Use of Animals in Ophthalmic and Vision Research.
(§2) Allogenic BMT was conducted using the C57BL/6N and BALB/c mice as transplant donors and recipients, respectively. The recipient mice received total body irradiation (TBI) (900 cGy divided in two fractions) from a Cs source 1 day before the transplantation. The donor C57BL/6N mice were sacrificed on dry ice and they femur and spleen were harvested. The bones were gently crushed manually using a sterile stick, and bone marrow (BM) cells were released by mixing the fragments of bones with RPMI. The suspension of BM cells was filtered to remove the impurities inside. The spleens were also gently crushed into a cell suspension and filtered. Inventors suspended the BM cells and splenic cells with RPMI and adjusted the density of cells to 1×10^6/[…] and 2×10^6/[…], respectively. […]
(§3) Mice were sacrificed 28 days after BM transplantation (Day 29 post irradiation) by carbon dioxide inhalation. […] Following three washes with PBS-T, sections were incubated in anti-goat HRP for 15 minutes and then detected with a goat-on-rodent HRP-Polymer Kit (Biocare Medical). Primary antibody labeling was detected using brown DAB substrate (Vector Laboratories, Burlingame, Calif., USA). […]

The test system of assay [2] is goblet cells. Description: Goblet cell identification by PAS staining in the cornea, stem cell deficiency model. The note with it: Fosaprepitant 1 mg/mL (FOSA 1); p<0.05. The source says:
Eight-week-old male mice C57BL6/N (Charles River, Calco, Italy) (WT mice, n=18) and Tac1-deficient B6.Cg-Tac1tm1Bbm/J (Jackson Laboratories, Bar Harbor, Me., USA) (TAC1-KO mice, n=18) were used in all experiments. TAC1-KO mice are homozygous null for the Tac1 gene. […] The corneal thickness and transparency as well as the corneal nerve length are similar to C57BL/6 mice [Barbariga M, Rabiolo A, Fonteyne P, Bignami F, Rama P, Ferrari G. The effect of aging on nerve morphology and substance P expression in mouse and human corneas. Investig Ophthalmol Vis Sci 2018; 59:5329-35. https://doi.org/10.1167/iovs.18-24707.]. Each animal was anesthetized with an intraperitoneal injection of tribromoethanol (250 mg/kg) and a topical anesthetic was applied to their ocular surface prior to the surgical procedure. […]
To identify the presence of goblet cells, periodic acid Schiff (PAS) staining was performed following the same experimental protocol previously described [Ferrari G, Bignami F, Giacomini C, Franchini S, Rama P. Safety and efficacy of topical infliximab in a mouse model of ocular surface scarring. […] The number of PAS+ cells was quantified using Image J software (National Institutes of Health, Bethesda, Md., USA), and the results were expressed as PAS+ cells per section.

In assay [3] the test system is CD45+ cells. The assay is described as follows: CD45+ inflammatory cell infiltration by immunohistochemistry, acute GVHD mouse model. The note with it: Fosaprepitant 10 mg/mL topically six times a day, day 29. As to the method: as §1, §2, §3

Entries after “also recorded” stand apart in the source; their conditions may differ.

As for `C[C@@H](O[C@H]1OCCN(Cc2nc(=O)n(P(=O)(O)O)[nH]2)[C@H]1c1ccc(F)cc1)c1cc(C(F)(F)F)cc(C(F)(F)F)c1` [Fosaprepitant, [3-{[(2R,3S)-2-[(1R)-1-[3,5-bis(trifluoromethyl)phenyl]ethoxy]-3-(4-fluorophenyl)morpholin-4-yl]methyl}-5-oxo-2H-1,2,4-triazol-1-yl]phosphonic acid], in assay [1], the “CD3+ cells infiltrating the conjunctiva” value was “reduced; also recorded: significantly decreased”, the “CD3+ cells infiltrating the cornea” value is listed as “reduced; also recorded: significantly decreased” and the “CD3+ cells infiltrating the lacrimal gland” value is “reduced; also recorded: significantly decreased”. Moreover, the “PAS+ cells (goblet cells) in the cornea compared to WT” value in assay [2] is “Reduced number; also recorded: decrease”. Further, the “CD45+ cell infiltration in the lacrimal gland” value in assay [3] (among all groups) is recorded as “no significant difference”. Further, the “CD45+ cell infiltration in the conjunctiva” value in assay [3] (p<0.0001) is on record as “significantly reduced”. For the same molecule, the “CD45+ cell infiltration in the cornea” value in assay [3] (p<0.01) was “significantly reduced”.
